Data reported in patent publication US11193114B2, “Immunogenic peptides for use in the prevention and/or treatment of infectious diseases, autoimmune diseases, immune responses to allofactors, allergic diseases, tumors, graft rejection and immune responses against viral vectors used for gene therapy or gene vaccination” (IMNATE SARL, priority 2010, dated 2021).

Legend:
EG7 tumor cells = assay: Apoptosis of EG7 tumor cells by CD4+ NKT cell lines from peptide-immunized mice (Annexin V / 7-AAD); format: cell-based, mouse (C57BL/6, H-2b); details: EG7 cells cultured 18 h at ratio 1/1 with NKT cell lines from mice immunized with the peptide
Procedure: C57BL/6 mice (n=6) were immunized by four subcutaneous injections of 50 μg of peptide of SEQ ID NO: 3 in alum carried out at one-week interval.
Such peptide contains a CD1d-restricted NKT cell epitope derived from ovalbumin and a thioreductase motif in flanking residues. A control group (n=6) of mice received physiological serum in alum instead of peptide. Ten days after the last immunization the mice were sacrificed and spleen CD4+ T cells were prepared by magnetic cell sorting. Such cells were stimulated twice with the immunizing peptide in vitro before assessing their activation state as measured by the production of IL-4 and IFN-gamma.
CD4+ NKT cell lines were then assayed in vitro for their capacity to kill EG7 tumor cells. EG7 tumor cells (H-2b) are derived from a thymoma transduced with an ova construct. A CD1d restricted ova epitope is presented by such cells, which is known to be insufficient to trigger NKT activation and tumor cell killing.
EG7 cells were labeled at membrane level with 1 μM DiOC18 (3,3′ dioctadecycloxacarbocyanine perchlorate from Invitrogen). […] After 18 h, cells were harvested and stained for Annexin V and 7-AAD following manufacturer's instructions (Apoptosis Detection kit; BD Biosciences) and analysed on a FACSCantoll flow cytometer (BD Biosciences).

[1] = test system: Factor VIII specific CD4+ T cells; assay: Activation (IL-4, IFN-gamma production) of Factor VIII specific CD4+ T cells from mice immunized with peptide, then injected with human factor VIII; format: in vivo, BALB/c Factor VIII KO mice; details: mice immunized 4 times with 50 μg peptide vs control group without peptide; spleen CD4+ T cells restimulated in vitro
Procedure: BALB/c Factor VIII KO mice (group A) were immunized 4 times at 1 week interval with 50 μg of peptide 2196, which contains a CD1d-restricted NKT cell epitope and a C-XX-C (SEQ ID NO: 14) thioreductase motif within flanking residues (SEQ ID NO: 1).
Human factor VIII was then injected by the subcutaneous route using 10 IU per injection on 5 occasions separated by one week. Ten days after the last immunization the mice were sacrificed and spleen CD4+ T cells were prepared by magnetic cell sorting. Such cells were stimulated twice with the immunizing peptide and FVIII in vitro before assessing their activation state as measured by the production of IL-4 and IFN-gamma. […] The results (FIG. 1) show a 10-fold reduction of IL-4 production by Factor VIII specific CD4+ T cells obtained from mice immunized with the peptide as compared to the control group, and a 7-fold reduction in the production of IFN-gamma. Results are shown as means+SEM.

[2] = test system: Der p I induced asthma in BALB/c mice; assay: Prevention of Der p I induced allergic asthma by peptide immunization; format: in vivo; details: 4 injections of 50 μg peptide; Der p I nasal instillation 10 days after last immunization
Source text: Allergens from the house dust mite, D. pteronyssinus, are frequently involved in allergic asthma. Der p I is the main allergen of D. pteronyssinus. The sequence of Der p I contains a CD1d binding motif corresponding to amino acid sequence 38 to 44. A peptide of sequence WAFSGVAATES (SEQ ID NO: 12) is produced by synthesis as well as its counterpart containing a thioreductase motif Thus, peptide of CGPCGGFSGVAATES (SEQ ID NO: 8) contains a thioreductase motif (underlined) and a linker of 2 glycines between the motif and the CD1d-binding motif.
Allergic asthma can be induced in BALB/c mice by nasal instillations of 100 μg Der p I administered on 3 consecutive days. Asthma is characterized by bronchial hyperreactivity and attraction of eosinophil infiltrates into the lung.
BALB/c mice are immunized by 4 injections of 50 μg of peptides of either SEQ ID8 or peptide in natural sequence as a control. Der p I is administered by nasal instillation 10 days after the last immunization.

Ad5 viral particles = assay: Anti-Ad5 IgG antibody response after peptide immunization and Ad5 injection (direct binding ELISA); format: in vivo, C57BL/6 mice; details: four sc injections of 50 μg peptide in alum, then 2 IV Ad5 injections; serum 10 days after last Ad5 injection
Procedure: C57BL/6 mice (n=6) were immunized by four subcutaneous injections of 50 μg of peptide of SEQ ID NO: 2 in alum carried out at one-week interval.
Such peptide contains a CD1d-restricted NKT cell epitope of hex on protein of adenovirus (Ad5) and a thioreductase motif in flanking residues. A control group (n=6) of mice received physiological serum in alum instead of peptide. All mice then received 2 injections of 109 Ad5 viral particles by the IV route, separated by I week. Ten days after the last Ad5 injection, mice were bled and the concentration of total IgG antibodies to Ad5 particles was measured in a direct binding ELISA Briefly, Ad5 viral particles were insolubilized on polystyrene plates, followed by washing and incubation with a dilution of mouse serum. After a second washing, the binding of mouse anti-Ad5 antibodies was detected by addition of a goat antiserum to mouse IgG. […] Results are given in arbitrary units as means+SEM.

[3] = test system: EAE (experimental autoimmune encephalomyelitis) in C57BL/6 mice; assay: Prevention of EAE by pre-immunization with MOG peptide; format: in vivo; details: four sc immunizations (50 μg) before disease induction with MOG 35-55
Procedure: MOG contains a sequence which binds to CD1d and activates NKT cells. Thus, peptide of sequence PHFLRVPCWKI (SEQ ID NO: 10) is produced by synthesis and a thioreductase-containing peptide of sequence CHGCGGFLRVPCWKI (peptide of SEQ ID NO: 6, in which the thioreductase motif is underlined and a linker of 2 glycines between the motif and the CD1d-binding motif).
Groups of C57BL/6 mice are immunized four times subcutaneously (50 μg) with peptide of SEQ ID6 or, as a control, with peptide in natural sequence. Ten days after the last immunization, all mice, including a group of naive, non-immunized animals, are induced into disease by subcutaneous injection of 100 μg MOG 35-55 peptide/400 μg Mycobacterium butyricum in CFA and ip injection of 300 ng Bordetella pertussis in NaCl. At day +2, a second injection of B. pertussis is given.
Signs of EAE are followed over time.

NOD mice = assay: Prevention of spontaneous insulin-dependent diabetes in NOD mice with GAD65 derived peptides; format: in vivo; details: female NOD mice, 4 sc injections from the age of 4 weeks
Source text: GAD65 contains amino acid sequences with the capacity to bind to CD1d. Thus, the sequence PQHTNVCFWFV (SEQ ID NO: 11), corresponding to amino acids 501 to 507 of GAD65, is produced by synthesis, as well as its counterpart encompassing a thioreductase motif within flanking residues: peptide of CHGCGGHTNVCFWFV (SEQ ID NO: 7) (with the thioreductase motif underlined and a linker of 2 glycines between the motif and the CD1d binding motif).
Female NOD mice are immunized from the age of 4 weeks by 4 subcutaneous injections of peptides of either SEQ ID7 or natural sequence, and glycaemia is followed in each of these groups, by comparison to a non-immunized group.

R113 tumor cells = assay: Killing of R113 tumor cells by NKT cells stimulated with ALK peptide (Annexin V binding); format: cell-based, C57BL/6 mice; details: 20 h co-culture with NKT cells stimulated with the peptide
Procedure: CD4 T cells (C57BL/6, H-2b background) obtained from the spleen of naive mice were stimulated four times with autologous dendritic cells loaded with a CD1d-restricted NKT cell epitope of ALK, to which a thioreductase motif of the C-XX-C (SEQ ID NO: 14) format was added within flanking residues. (Peptide of CHGCGGWLQIVTWWGPGS (SEQ ID NO: 5) (with thioreductase motif underlined and 2 glycines used as linker between the motif and the CD1d-restricted epitope)).
As NKT cells have per se a cytolytic activity, we included cells which were stimulated in parallel experiments by exposure to the same CD1d-restricted NKT epitope in natural sequence, without thioredox motif (WLQIVTWWGPGS) (SEQ ID NO: 9).
Ten days after the last stimulation, CD4 T cells were washed and added to cell culture microplates containing 104 Rl13 tum or cells at a 2 to 1 ratio (CD4 to tum or cells). Rl13 is a tumor B cell line obtained from C57BL/6 mice, which constitutively expresses ALK.
After 20 h of co-culture, Rl13 tumor cells were evaluated for Annexin V binding used as marker of cell apoptosis.

[4] = test system: BALB/c-derived ALK+ tumor cell line (VAC); assay: Killing of VAC ALK+ tumor cells by NKT cells stimulated with ALK peptide (Annexin-V binding by FACS); format: cell-based, BALB/c mice; details: VAC cells co-cultured with BALB/c NKT cells stimulated with the peptide; mean of triplicates
Procedure: Co-culture with a BALB/c-derived ALK+tumor cell line (VAC) was carried out as described above. Apoptosis of tumor cells was measured by evaluating Annexin-V binding by FACS.

Substance: CGH CGG FDKLPGF (CGHCGGFDKLPGF) [SEQ ID3]
- apoptosis of EG7 tumor cells (EG7 tumor cells): are induced into apoptosis

Substance: CGH CGG FTN MFA TWS PSK (CGHCGGFTNMFATWSPSK) [peptide 2196]
- reduction in the production of IFN-gamma by Factor VIII specific CD4+ T cells [1]: 7 fold
- reduction of IL-4 production by Factor VIII specific CD4+ T cells [1]: 10 fold

Substance: CGPCGGFSGVAATES [SEQ ID8]
- airway reactivity to inhalation of methacholine [2]: do not develop airway reactivity to inhalation of methacholine
- lung infiltration with eosinophils [2]: do not show lung infiltration with eosinophils

Substance: CHG CGG FIGLMYY (CHGCGGFIGLMYY) [SEQ ID NO: 2]
- total IgG antibodies to Ad5 particles (Ad5 viral particles): did not produce significant amounts of antibodies

Substance: CHGCGGFLRVPCWKI [SEQ ID6, thioreductase-containing MOG peptide]
- signs of EAE [3]: do not develop EAE

Substance: CHGCGGHTNVCFWFV [SEQ ID7]
- glycaemia (NOD mice): prevented from hyperglycaemia

Substance: CHGCGGWLQIVTWWGPGS [peptide of sequence 1]
- increase in tumor cell death as compared to tumor cells cultured alone (R113 tumor cells): 4.5 fold
- tumor cell death (Annexin V binding) (R113 tumor cells; 2 to 1 ratio, mean of triplicates): 18%
- tumor cell death (Annexin-V binding) [4]: 25%

Substance: PQHTNVCFWFV [SEQ ID NO: 11, reference compound]
- glycaemia (NOD mice): develop hyperglycaemia starting after the 14th week
